In PubChem BioAssay (NCI):
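Briefly, cells in 96-well plates were exposed to five compound concentrations for 48 h, and endpoints were estimated by linear interpolation. GI50 = concentration required for 50% inhibition of growth. At the TGI there is no net growth.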

Tests used:
Experiment in all cases: NCI tumour cell line growth inhibition, 48 h
[1] = system: MALME-3M melanoma
[2] = system: MDA-MB-231 breast
[3] = system: ACHN renal
[4] = system: RXF 393 renal
[5] = system: NCI-H460 lung
[6] = system: SNB-75 CNS
[7] = system: SK-MEL-5 melanoma
[8] = system: T-47D breast
[9] = system: NCI-H522 lung
[10] = system: DMS 114 small cell lung
[11] = system: SW-620 colon
[12] = system: 786-0 renal
[13] = system: OVCAR-4 ovarian
[14] = system: HOP-62 NSCLC
[15] = system: HCC-2998 colon
[16] = system: OVCAR-5 ovarian
[17] = system: CCRF-CEM leukemia
[18] = system: HL-60(TB) leukemia
[19] = system: IGROV1 ovarian
[20] = system: DMS 273 small cell lung
[21] = system: SNB-19 CNS
[22] = system: COLO 205 colon
[23] = system: BT-549 breast
[24] = system: SF-539 CNS
[25] = system: LXFL 529 NSCLC
[26] = system: KM12 colon
[27] = system: HCT-15 colon
[28] = system: HOP-92 NSCLC
[29] = system: MCF7 breast
[30] = system: LOX IMVI melanoma
[31] = system: SNB-78 CNS
[32] = system: DU-145 prostate
[33] = system: TK-10 renal
[34] = system: HT29 colon
[35] = system: SK-MEL-2 melanoma
[36] = system: NCI-H23 lung
[37] = system: UACC-257 melanoma
[38] = system: U251 CNS
[39] = system: UO-31 renal
[40] = system: OVCAR-8 ovarian
[41] = system: UACC-62 melanoma
[42] = system: KM20L2 colon
[43] = system: EKVX NSCLC
[44] = system: MDA-N
[45] = system: RPMI-8226 leukemia
[46] = system: NCI/ADR-RES ovarian
[47] = system: M19-MEL melanoma
[48] = system: MOLT-4 leukemia
[49] = system: HCT-116 colon
[50] = system: SF-268 CNS

Q: With `C[CH2][Sn]([CH2]C)([O]C(=O)c1ccccc1F)[O]C(=O)c1ccccc1F` as the compound, how does the GI50 [1] read?
A: 16.5 µM

Q: What about the TGI [1] of the same compound?
A: 31.4 µM

Q: And the GI50 [2]?
A: > 100 µM

Q: And the TGI [2]?
A: > 100 µM

Q: What about the GI50 [3] of the same compound?
A: 32.7 µM

Q: And the TGI [3]?
A: 48.3 µM

Q: And the GI50 [4]?
A: 15.4 µM

Q: What about the TGI [4] of the same compound?
A: 35.4 µM

Q: And the GI50 [5]?
A: > 100 µM

Q: And the TGI [5]?
A: > 100 µM

Q: What about the GI50 [6] of the same compound?
A: 21.7 µM

Q: What about the TGI [6] of the same compound?
A: > 53.4 µM

Q: And the GI50 [7]?
A: 50.2 µM

Q: What about the TGI [7] of the same compound?
A: > 100 µM

Q: What about the GI50 [8] of the same compound?
A: 11.8 µM

Q: What about the TGI [8] of the same compound?
A: 24.4 µM

Q: What about the GI50 [9] of the same compound?
A: 2.1 µM

Q: And the TGI [9]?
A: 6.84 µM

Q: And the GI50 [10]?
A: 20.4 µM

Q: What about the TGI [10] of the same compound?
A: 43.1 µM

Q: What about the GI50 [11] of the same compound?
A: 28.3 µM

Q: What about the TGI [11] of the same compound?
A: 73.7 µM

Q: What about the GI50 [12] of the same compound?
A: 33.3 µM

Q: What about the TGI [12] of the same compound?
A: > 69.3 µM

Q: And the GI50 [13]?
A: > 100 µM

Q: And the TGI [13]?
A: > 100 µM

Q: And the GI50 [14]?
A: > 100 µM

Q: What about the TGI [14] of the same compound?
A: > 100 µM

Q: And the GI50 [15]?
A: > 100 µM

Q: And the TGI [15]?
A: > 100 µM

Q: What about the GI50 [16] of the same compound?
A: > 97.4 µM

Q: What about the TGI [16] of the same compound?
A: > 100 µM

Q: What about the GI50 [17] of the same compound?
A: 8.77 µM

Q: And the TGI [17]?
A: 35.6 µM

Q: What about the GI50 [18] of the same compound?
A: > 45.2 µM

Q: And the TGI [18]?
A: > 100 µM

Q: And the GI50 [19]?
A: > 100 µM

Q: What about the TGI [19] of the same compound?
A: > 100 µM

Q: And the GI50 [20]?
A: > 67 µM

Q: What about the TGI [20] of the same compound?
A: > 100 µM

Q: And the GI50 [21]?
A: 36.6 µM

Q: And the TGI [21]?
A: 60.6 µM

Q: And the GI50 [22]?
A: 38.8 µM

Q: What about the TGI [22] of the same compound?
A: 62.3 µM

Q: What about the GI50 [23] of the same compound?
A: 18.1 µM

Q: What about the TGI [23] of the same compound?
A: 35.8 µM

Q: What about the GI50 [24] of the same compound?
A: 23.2 µM

Q: And the TGI [24]?
A: 29.4 µM

Q: And the GI50 [25]?
A: 11.1 µM

Q: What about the TGI [25] of the same compound?
A: 24.2 µM

Q: And the GI50 [26]?
A: > 100 µM

Q: And the TGI [26]?
A: > 100 µM

Q: What about the GI50 [27] of the same compound?
A: 29 µM

Q: And the TGI [27]?
A: > 67.7 µM

Q: What about the GI50 [28] of the same compound?
A: 18 µM

Q: And the TGI [28]?
A: 37.7 µM

Q: What about the GI50 [29] of the same compound?
A: 27.4 µM

Q: And the TGI [29]?
A: 80.6 µM

Q: What about the GI50 [30] of the same compound?
A: 19.2 µM

Q: And the TGI [30]?
A: 40.8 µM

Q: What about the GI50 [31] of the same compound?
A: 20.6 µM

Q: And the TGI [31]?
A: 39 µM

Q: And the GI50 [32]?
A: > 100 µM

Q: And the TGI [32]?
A: > 100 µM

Q: What about the GI50 [33] of the same compound?
A: 18.1 µM

Q: And the TGI [33]?
A: 33.4 µM

Q: What about the GI50 [34] of the same compound?
A: 59.2 µM

Q: What about the TGI [34] of the same compound?
A: > 100 µM

Q: What about the GI50 [35] of the same compound?
A: 15.8 µM

Q: What about the TGI [35] of the same compound?
A: 28.1 µM

Q: What about the GI50 [36] of the same compound?
A: 22.6 µM

Q: What about the TGI [36] of the same compound?
A: 45 µM

Q: And the GI50 [37]?
A: 32 µM

Q: What about the TGI [37] of the same compound?
A: > 46.4 µM

Q: What about the GI50 [38] of the same compound?
A: 47.4 µM

Q: And the TGI [38]?
A: > 85.1 µM

Q: And the GI50 [39]?
A: > 55.2 µM

Q: And the TGI [39]?
A: > 67.3 µM

Q: What about the GI50 [40] of the same compound?
A: > 70.5 µM

Q: What about the TGI [40] of the same compound?
A: > 100 µM

Q: And the GI50 [41]?
A: 27.2 µM

Q: What about the TGI [41] of the same compound?
A: 52.4 µM

Q: What about the GI50 [42] of the same compound?
A: > 83.8 µM

Q: And the TGI [42]?
A: > 100 µM

Q: And the GI50 [43]?
A: > 100 µM

Q: And the TGI [43]?
A: > 100 µM

Q: And the GI50 [44]?
A: > 100 µM

Q: What about the TGI [44] of the same compound?
A: > 100 µM

Q: And the GI50 [45]?
A: 17.2 µM

Q: What about the TGI [45] of the same compound?
A: 45.7 µM

Q: What about the GI50 [46] of the same compound?
A: > 100 µM

Q: And the TGI [46]?
A: > 100 µM

Q: And the GI50 [47]?
A: 29.8 µM

Q: What about the TGI [47] of the same compound?
A: > 77.2 µM

Q: What about the GI50 [48] of the same compound?
A: 28.8 µM

Q: And the TGI [48]?
A: > 91 µM

Q: And the GI50 [49]?
A: > 69.8 µM

Q: What about the TGI [49] of the same compound?
A: > 100 µM

Q: And the GI50 [50]?
A: 32.1 µM

Q: What about the TGI [50] of the same compound?
A: 50.8 µM
